Data taken from paper PMC3401594 (International Journal of Pharmaceutics, 2009).
“And” between values parts separate entries of the source, which are not always exact repeats. Equal entries are not always repeated. Where two headings read alike, the source gives them in different places. Marks after values point to notes of the source that are not given here.

Legend:
recombinant human P-gp [1] = target: T1, recombinant human P-gp (Homo sapiens, UniProt P08183)
[2] = test system: P-gp (mdr1a/b) influence on antinociception; parameters: species or system mice; details: mouse, in vivo; for Influence of P-gp ablation on antinociceptive activity: sc
[3] = mouse, in vivo
μ receptor = details: read-out: Ki at μ receptor, as determined by DEC, NIDA, ref DEC; cited from earlier work
[4] = tail-flick, hotplate and paraphenylquinone assays; ref DEC, NIDA; cited from earlier work
recombinant human P-gp [5] = target: T1, recombinant human P-gp; details: cited from earlier work
[6] = ref Casy and Parfitt, 1986; cited from earlier work
[7] = 20 mg/kg, for 45 min in wild type mice; ref Thompson et al., 2000; cited from earlier work
[8] = in vivo; cited from earlier work

T1 sequence (P08183 whole entry): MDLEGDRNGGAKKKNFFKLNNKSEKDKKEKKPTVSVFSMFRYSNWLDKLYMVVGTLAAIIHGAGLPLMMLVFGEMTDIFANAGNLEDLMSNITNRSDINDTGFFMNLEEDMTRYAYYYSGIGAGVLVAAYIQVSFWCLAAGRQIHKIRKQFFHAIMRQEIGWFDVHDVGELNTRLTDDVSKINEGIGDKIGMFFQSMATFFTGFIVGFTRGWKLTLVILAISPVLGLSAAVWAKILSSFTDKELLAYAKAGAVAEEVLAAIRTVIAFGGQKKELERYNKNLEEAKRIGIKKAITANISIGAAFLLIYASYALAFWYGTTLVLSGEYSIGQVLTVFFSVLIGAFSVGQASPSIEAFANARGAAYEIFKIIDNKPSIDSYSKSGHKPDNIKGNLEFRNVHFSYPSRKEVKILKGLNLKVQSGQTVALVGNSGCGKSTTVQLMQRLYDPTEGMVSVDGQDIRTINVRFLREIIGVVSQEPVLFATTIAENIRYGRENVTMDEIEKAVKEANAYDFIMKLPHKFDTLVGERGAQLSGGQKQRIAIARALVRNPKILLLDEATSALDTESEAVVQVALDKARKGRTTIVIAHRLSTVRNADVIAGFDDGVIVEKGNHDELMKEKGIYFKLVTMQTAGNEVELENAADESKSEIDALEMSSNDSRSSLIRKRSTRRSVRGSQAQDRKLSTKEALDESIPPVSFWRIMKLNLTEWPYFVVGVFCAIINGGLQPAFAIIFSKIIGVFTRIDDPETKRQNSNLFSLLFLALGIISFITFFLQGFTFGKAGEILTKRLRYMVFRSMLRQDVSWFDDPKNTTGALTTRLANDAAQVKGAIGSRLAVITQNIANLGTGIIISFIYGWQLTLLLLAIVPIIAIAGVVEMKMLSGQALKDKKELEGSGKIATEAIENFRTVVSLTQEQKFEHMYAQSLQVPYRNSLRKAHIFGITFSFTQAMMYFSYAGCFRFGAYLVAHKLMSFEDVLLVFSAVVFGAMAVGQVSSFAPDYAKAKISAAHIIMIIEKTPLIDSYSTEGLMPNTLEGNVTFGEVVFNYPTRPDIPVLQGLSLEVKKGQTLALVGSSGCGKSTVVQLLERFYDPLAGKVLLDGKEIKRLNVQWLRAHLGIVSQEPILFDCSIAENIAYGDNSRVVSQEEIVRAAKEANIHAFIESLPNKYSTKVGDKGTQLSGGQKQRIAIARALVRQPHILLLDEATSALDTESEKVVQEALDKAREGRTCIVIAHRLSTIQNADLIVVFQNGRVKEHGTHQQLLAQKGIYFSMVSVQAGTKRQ

For `COc1ccc2c3c1O[C@H]1CC=C[C@H]4[C@@H](C2)N(C)CC[C@]314` [6-Desoxycodeine], the “P-gp affinity status from P-gp ATPase assay” value (“P-gp affinity status” below) (recombinant human P-gp [1]) was “not to be P-gp substrates” and the “Fold stimulation of basal P-gp-ATPase activity” value (recombinant human P-gp [1]; human) was 1.31 ± 0.15 fold.

With `CN1CC[C@]23c4c5ccc(O)c4O[C@H]2CC=C[C@H]3[C@H]1C5` [6-Desoxymorphine] the “AUEC ratio mdr1a/b (−/−)/mdr1a/b (+/+)” value [2] was 1.14 ± 1.08 and 1.17 ± 0.17, the “Maximum %MPE reached” value [2] was 100% and the “Influence of P-gp ablation on antinociceptive activity” value [2] was “no significant influence”. The “P-gp affinity status” value (recombinant human P-gp [1]) was “not to be P-gp substrates”, the “Fold stimulation of basal P-gp-ATPase activity” value (recombinant human P-gp [1]; human) was 1.01 ± 0.11 fold and the Signs of toxicity [3] was “no apparent toxicity”. The Ki (μ receptor) was 2.9 nM and the “Potency relative to morphine (times as potent)” value [4] was ~ 10 times.

With `COc1ccc2c3c1O[C@H]1[C@@H](O)C=C[C@H]4[C@@H](C2)N(C)CC[C@@]341` [Codeine] the “Fold stimulation of basal P-gp-ATPase activity” value (recombinant human P-gp [1]; human) was 1.36 ± 0.07 ^b fold and the “Rate of ATP consumption versus non-treated control (significance)” value (recombinant human P-gp [1]; human) was “significantly different (p < 0.05)”.

In the case of `CCOC(=O)C1(c2ccccc2)CCN(C)CC1` [Meperidine], the “AUEC ratio mdr1a/b (−/−)/mdr1a/b (+/+)” value [2] is reported as 1.14 ± 0.2, the “mdr1a/b (+/+) (AUEC)” value [2] is reported as 6752.14 ± 917.94 %MPE × min and the “mdr1a/b (−/−) (AUEC)” value [2] is reported as 7678.40 ± 851.59 %MPE × min. The “Influence of P-gp ablation on antinociceptive activity” value [2] was “no significant influence”, the “Fold stimulation of basal P-gp-ATPase activity” value (recombinant human P-gp [5]) was 1.51 ± 0.29 fold and the “Intravenous to intraventricular ED10 ratio” value [6] was 8.5.

In the case of `CN1CC[C@]23c4c5ccc(O)c4O[C@H]2[C@@H](O)C=C[C@H]3[C@H]1C5` [Morphine], the “%MPE reached” value [7] is given as ~ 95 %MPE.

In the case of `C=CCN1CC[C@]23c4c5ccc(O)c4O[C@H]2C(=O)CC[C@@]3(O)[C@H]1C5` [Naloxone], the “Fold stimulation of basal P-gp-ATPase activity” value (recombinant human P-gp [1]; human) is reported as 1.25 ± 0.11 fold and the “Stimulation of P-gp ATPase activity (significance)” value (recombinant human P-gp [1]; human) is reported as “did not significantly (p > 0.05) stimulate”.

For `CN1CC[C@]23c4c5ccc(O)c4O[C@H]2C(=O)CC[C@@]3(O)[C@H]1C5` [Oxymorphone], the “P-gp affinity status” value (recombinant human P-gp [1]) was “not to be P-gp substrates”, the “Fold stimulation of basal P-gp-ATPase activity” value (recombinant human P-gp [1]; human) was 1.12 ± 0.12 fold and the “Stimulation of P-gp ATPase activity (significance)” value (recombinant human P-gp [1]; human) was “did not significantly (p > 0.05) stimulate”. The “Potency relative to morphine (times as potent)” value [8] was “approximately 10 times”.
